Results published in patent US20200375929A1, “METHODS AND COMPOSITIONS FOR THE TREATMENT OF DISEASES ASSOCIATED WITH CANCER, INFLAMMATION, OR IMMUNE RESPONSE” (Washington University, priority 2017, published 2020).
Entries after “also recorded” stand apart in the source; their conditions may differ.

Legend:
[1] = system: IκBζ; assay: LPS-induced Ikb-ζ protein induction in BMDMs (western blot); format: cell-based, mouse
Description: (§1) BMDM were prepared from 6- to 12-week-old mice as described 1 and cultured in RMPI-1640 medium supplemented with 10% fetal bovine serum (FBS), 2 mM L-glutamine, and 100 U/mL penicillin-streptomycin and mouse recombinant M-CSF ([…], Peprotech). For experiments, cells were seeded at concentration 10^6 cells/mL in tissue culture plates of various formats. The cells were treated with DI (250 μM (unless stated otherwise), cat #592498, Sigma), DMF (50 μM (unless stated otherwise), cat #242926, Sigma), 3-(ethoxycarbonyl)but-3-enoic acid (3MI, 5 μM, Aris Pharmaceuticals Inc.), 4-ethoxy-2-methylene-4-oxobutanoic acid (MI, Aris Pharmaceuticals Inc.) for 12 h and activated with lipopolysaccharide (LPS; 100 ng/mL; E. coli 0111:B4, Sigma) for 1 h or as indicated. In some experiments cells were stimulated with combination of LPS (20 ng/mL) and IFN-γ (50 ng/mL; Peprotech). In some experiments cells were treated with α-tocopherol (AT, 10 μM; Sigma), MitoTEMPO (MT, 500 μM; Sigma), N-acetylcysteine (NAC, 1 mM, Sigma), ethylester of GSH (EtGSH; 1 mM, Santa Cruz) or buthionene sulfoximine (BSO, 500 μM, Sigma) alone or in combination with DI for 12 h. In some experiments BMDMs were treated with DI for 12 h and bafilomycin A (BafA, 100 nM, Sigma) or MG132 (10 μM, Selleckchem) were added 30 min before subsequent LPS stimulation.
Cells were lysed in RIPA Lysis Buffer System (Santa Cruz) and heat-denatured at 95° C. for 5 min in reducing sample buffer (BioRad). Proteins were separated on 4%-20% polyacrylamide gradient gels (BioRad) and transferred onto 0.45 μm pore size PVDF membranes (Millipore). Non-specific binding was blocked with 5% skim milk (or 5% BSA when phospho-proteins were analyzed), and membranes were probed with primary antibodies specific to Nrf2 (#12721), HO-1 (#70081), IκBζ (mouse specific, #93726), IκBζ(#9244), ATF3 (#D2Y5W), IRAK1 (#4504; sensitivity of IRAK1 detection diminishes upon IRAK1 K63 ubiquitination), phospho-IKK (Ser176/180, #2697), p62/SQSTM1 (#5114), phospho-eIF2α (Ser51, #9721), eIF2α (#5324) from Cell Signaling; GAPDH (sc-25778), IκBα (sc-1643), ATF3 (sc-188), SDHA (sc-166909) from Santa Cruz; NQO1 (ab28947) from Abeam, followed by incubation with anti-rabbit-HRP (1:10,000; sc-2030) or anti-mouse-HRP (1:10,000; sc-2031) from Santa Cruz and Clarity western ECL substrate (Bio-Rad). Membranes were exposed to X-Ray films (Research Products International Corp.) and developed using SRX-101A film processor (Konica Minolta). GAPDH run on the same blot was used as loading control. After scanning of original films image brightness of some blots was adjusted and bands were cropped using ImageJ. Densitometry was performed using ImageJ.

[2] = system: IL6, IL12, IL1b, TNFα; assay: Cytokine production in LPS-stimulated BMDMs (ELISA); format: cell-based, mouse
Description: as §1
Cytokines in cell supernatants were analyzed using DuoSet® ELISA kits according to manufacturer protocol (R&D Systems). The supernatants from BMDMs were diluted 1:4, from human blood monocytes 1:3.

[3] = system: Nrf2; assay: Nrf2 response in BMDMs (western blot, target genes); format: cell-based, mouse; conditions: 12 h treatment
Description: as §1, with “In some experiments BMDMs were treated with DI for 12 h and bafilomycin A (BafA, 100 nM, Sigma) or MG132 (10 μM, Selleckchem) were added 30 min before subsequent LPS stimulation.” left out
Cells were lysed in RIPA Lysis Buffer System (Santa Cruz) and heat-denatured at 95° C. for 5 min in reducing sample buffer (BioRad). […] Non-specific binding was blocked with 5% skim milk (or 5% BSA when phospho-proteins were analyzed), and membranes were probed with primary antibodies specific to Nrf2 (#12721), HO-1 (#70081), IκBζ (mouse specific, #93726), IκBζ(#9244), ATF3 (#D2Y5W), IRAK1 (#4504; sensitivity of IRAK1 detection diminishes upon IRAK1 K63 ubiquitination), phospho-IKK (Ser176/180, #2697), p62/SQSTM1 (#5114), phospho-eIF2α (Ser51, #9721), eIF2α (#5324) from Cell Signaling; GAPDH (sc-25778), IκBα (sc-1643), ATF3 (sc-188), SDHA (sc-166909) from Santa Cruz; NQO1 (ab28947) from Abeam, followed by incubation with anti-rabbit-HRP (1:10,000; sc-2030) or anti-mouse-HRP (1:10,000; sc-2031) from Santa Cruz and Clarity western ECL substrate (Bio-Rad). […]

[4] = system: imiquimod-induced psoriasis-like skin inflammation; assay: IMQ-induced psoriasis mouse model; format: in vivo; conditions: DI daily i.p.
Description: RNA from cultured cells was isolated using a Total RNA I kit (OMEGA). RNA from mouse ear skin was extracted using RNAeasy mini kit (Qiagen) after tissue disruption with sterile zirconium beads on a MagNA Lyser (Roche). Isolated RNA was reverse transcribed using AffinityScript Multi-Temp reverse transcriptase (Agilent Technologies) according to the manufacturer's protocol. Reactions were performed in 96-well plates using a SYBR Green PCR Master mix (Thermo Fisher Scientific) using a LightCycler® 96 or LightCycler® 480 (Roche Diagnostics). All assays were performed at least in duplicates, and reaction mixtures in 20 μL volumes (96-plate) or 10 μL volumes (384-plate) were processed under the following cycling conditions: initial 10 min denaturation at 95° C., followed by 40 cycles at 95° C. for 10 s, 60° C. for 1 min. Threshold cycle (CT) values for each sample were determined by automated threshold analysis. Expression levels of all mRNAs were normalized to reference gene Actb in BMDMs or to Rpl19 in mouse keratinocytes and tissue samples; to ACTB in human blood monocytes or RPLP0 in human keratinocytes. […] Average ear thickness in each sample was quantified from images obtained at the identical settings using ImageJ. Thickness at 5 equidistant places in each image was quantified and mean of these values was used to represent results in each mouse.

[5] = system: LY1 and LY7 (GCB) cell lines; assay: DLBCL cell viability, resazurin assay, GCB subtype; format: cell-based; conditions: LY1 and LY7, 4 days, refreshed daily; DI 125-250 μM

Q: What does the source list for `C=C(CC(=O)OC)C(=O)OC` [DI, dimethyl itaconate]?
A: IκBζ protein levels upon DI treatment in Atf3−/− cells ([1]; Atf3−/− BMDMs, DI, LPS): restored IκBζ protein levels; LPS-induced Ikb-ζ induction, protein level ([1]; BMDMs treated with compound 12 h, then LPS 100 ng/ml): almost complete inhibition; also recorded: completely abolished; also recorded: inhibited IκBζ induction; effect on IκBζ/IL-6 in combination with BSO ([1]; BMDMs, compound plus BSO 500 μM, LPS): enhanced the inhibitory effect; DI inhibition of Ikb-ζ induction in Nrf2-deficient cells ([1]; Nrf2 KO BMDMs, DI 250 μM 12 h, LPS): did not affect inhibition of Ikb-ζ induction; also recorded: did not alleviate; IκBζ inhibition by DI in p62/SQSTM1- or HO-1-lacking macrophages ([1]; macrophages genetically lacking p62/SQSTM1 or HO-1): did not rescue IκBζ inhibition by DI; IL-6 production in DI-treated Atf3−/− cells compared to WT ([2]; Atf3−/− BMDMs, DI, LPS 24 h): significantly increased IL-6 production; LPS-induced cytokine production ([2]; BMDMs pretreated 12 h, then LPS): down-regulates production of IL6, IL12, and IL1b, but not TNFα; DI-mediated IL-6 inhibition in Nrf2-deficient BMDMs ([2]; Nrf2-deficient BMDMs, DI, LPS 4 h): did not alleviate; Nrf2 response (Nrf2 protein, target genes) [3]: triggered strong Nrf2 response; also recorded: increased; IκBζ target gene expression (Defb4, S100a9, S100a7a, Lcn2) in ear skin ([4]; IMQ 7 days, qPCR): markedly reduced; psoriatic skin pathology ([4]; IMQ topically on ears 7 days): significant improvement of the psoriatic pathology; also recorded: no detectable skin changes; growth / toxicity, GCB DLBCL [5]: not GCB cells
